This is an account of results in US20100003302A1, “VASCULAR RESTENOSIS PREVENTING AGENT AND IMPLANTABLE INTRAVASCULAR DEVICE COATED THEREWITH” (priority 2001, published 2010).

Assay [1] has as its system vascular smooth muscles (HNB18E6E7 cell line). In words: Migration of vascular smooth muscle cells into fibrin gel containing N-chlorsuccinimide. To be noted: 37° C., 24 hours. It counts as cell-based, human. The procedure:
The vascular smooth muscles were collected from human vital arteries and established HNB18E6E7 was used as cell lines. The vascular smooth muscles were incubated in 6-well plates to produce confluent cultures. The resultant supernatant fluids were washed three time with warmed phosphate buffer solution (PBS) and softly added with 3 mg/mL of fibrinogen and 0.8 mL of Waymouth culture solution including 10 w/v % human serum. Then, the supernatant fluids were respectively added with N-chlorsuccinimide to adjust the final concentration of N-chlorsuccinimide to 0.08 mM, 0.8 mM, 8 mM and 80 mM, and gelled by addition of thrombin. The resultant gelled supernatants were incubated at 37° C. for 24 hours, and the numbers of the smooth muscle cells migrated into the gel was counted with a phase contrast microscope. For each concentration, the experiments were carried out to make n=3. The ordinate denotes the frequencies of migration of vascular smooth muscles into the gel, while the abscissa denotes the concentration of N-chlorsuccinimide.

The subject of assay [2] is right common iliac artery vascular injury model. In words: Neointimal formation in vascular injury model (right common iliac artery 3-times balloon injury). It counts as in vivo, rabbits. To be noted: local administration by balloon immersed in 80 mM N-chlorsuccinimide vs PBS control; 4 weeks after treatment. The procedure:
There were used a group of animals consisted of 5 (five) […] male rabbits aged 2 months. Vascular injury models were prepared by introducing a Fogarty catheter, Model e-060-2F, made by Baxter corporation (that is an arterial embolectomy balloon catheter) into the right common iliac artery through the right femoral artery under pentobarbital anesthesia, and then abrading the right common iliac artery 3 times under conditions of the balloon being inflated (balloon pressure: 0.5-1.0 atm). After injuring the vascular endothelium, hydrophilic balloons made by Boston Scientific Corporation, of an N-chlorsuccinimide-treated group prepared by immersing the balloons in 80 mM N-chlorsuccinimide, and of a control group prepared by immersing the balloons in PBS, were respectively inflated in the right common iliac arteries to locally administer the drug to each injured area. After 4 weeks from the treatment, the arteries were surgically removed, fixed with 10w/v % neutral buffered formalin fixative and then sectioned to prepare arterial ring tissue sections. After preparing elastic fiber stained tissue samples by EVG (Elastic Van Gieson) staining, the samples were subjected to measurements of intimal area (I) and medial area (M) to determine their ratio (I/M) as the degree of intimal thickening. […]

Assay [3] concerns the target T1, α2-macroglobulin (Homo sapiens, UniProt P01023).
T1 sequence (P01023 24-1474): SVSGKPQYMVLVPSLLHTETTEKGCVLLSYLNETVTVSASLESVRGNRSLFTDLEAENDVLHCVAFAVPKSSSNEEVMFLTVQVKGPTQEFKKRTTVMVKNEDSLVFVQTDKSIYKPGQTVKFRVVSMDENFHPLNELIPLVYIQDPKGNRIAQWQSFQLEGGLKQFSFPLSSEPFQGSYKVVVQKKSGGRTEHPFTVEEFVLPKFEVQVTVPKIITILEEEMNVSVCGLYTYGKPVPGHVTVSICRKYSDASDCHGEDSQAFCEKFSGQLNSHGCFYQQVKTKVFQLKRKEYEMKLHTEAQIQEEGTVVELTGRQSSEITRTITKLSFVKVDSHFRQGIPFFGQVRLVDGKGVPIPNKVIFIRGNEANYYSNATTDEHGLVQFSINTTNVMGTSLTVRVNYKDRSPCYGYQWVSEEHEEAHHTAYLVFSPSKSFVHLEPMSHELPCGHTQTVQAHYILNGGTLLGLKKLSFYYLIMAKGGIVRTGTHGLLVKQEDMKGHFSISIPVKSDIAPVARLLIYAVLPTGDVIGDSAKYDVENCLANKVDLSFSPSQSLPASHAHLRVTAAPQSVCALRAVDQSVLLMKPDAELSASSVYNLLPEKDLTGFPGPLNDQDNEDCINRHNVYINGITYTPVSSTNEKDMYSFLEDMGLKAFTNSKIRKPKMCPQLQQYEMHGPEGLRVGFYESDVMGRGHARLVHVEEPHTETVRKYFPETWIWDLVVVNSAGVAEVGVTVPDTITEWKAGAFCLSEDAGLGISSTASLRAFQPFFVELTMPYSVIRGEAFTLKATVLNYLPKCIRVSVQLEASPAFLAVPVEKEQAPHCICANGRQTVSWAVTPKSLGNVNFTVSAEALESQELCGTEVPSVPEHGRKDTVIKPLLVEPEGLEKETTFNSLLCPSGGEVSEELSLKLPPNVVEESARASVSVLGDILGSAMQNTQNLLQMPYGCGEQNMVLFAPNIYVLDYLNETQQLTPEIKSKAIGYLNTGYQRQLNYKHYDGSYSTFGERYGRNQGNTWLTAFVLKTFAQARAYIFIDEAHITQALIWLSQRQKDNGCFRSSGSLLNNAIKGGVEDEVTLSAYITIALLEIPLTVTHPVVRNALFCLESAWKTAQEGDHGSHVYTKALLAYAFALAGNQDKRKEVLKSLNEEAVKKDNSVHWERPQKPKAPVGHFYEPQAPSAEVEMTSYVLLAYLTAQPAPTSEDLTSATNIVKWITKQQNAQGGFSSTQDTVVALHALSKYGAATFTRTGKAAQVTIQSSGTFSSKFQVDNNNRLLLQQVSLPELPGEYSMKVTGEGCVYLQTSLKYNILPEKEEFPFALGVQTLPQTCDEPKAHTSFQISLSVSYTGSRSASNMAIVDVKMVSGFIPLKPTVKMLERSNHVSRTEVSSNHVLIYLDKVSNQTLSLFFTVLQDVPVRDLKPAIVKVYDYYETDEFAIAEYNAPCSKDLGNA
The assay can be described thus: Deactivation of α2-macroglobulin (trypsin / coloring matrix S2222 assay, absorption at 405 nm). It counts as biochemical. Here is the method: Utilizing the facts that trypsin is inhibited by α2-macroglobulin and that trypsin causes yellow coloring of a coloring matrix S2222 resulting from decomposition thereof, verification was carried out for effects of methylamine, ethylamine, polyethyleneimines with molecular weights of 600 and 10000, tobramycin, ammonia, lysozyme chloride and polylysine on deactivation of α2-macroglobulin. A concrete method will be given below.
Firstly, each of methylamine, ethylamine, polyethyleneimines with molecular weights of 600 and 10000, tobramycin, ammonia, lysozyme chloride and polylysine was diluted to 0.0001 w/v %, 0.001 w/v %, 0.01 w/v %, 0.1 w/v % and 1 w/v % to prepare a series of diluted solutions as sample solutions. 50 μL of each sample solution was added with 50 μL of 2.5×10^−4 w/v % α2-macroglobulin and left for 5 minutes at room temperature. Then, the sample solution was added with 50 μL of a 5 w/v % trypsin EDTA solution, left for 5 minutes at room temperature, and then added with 10 μL of the coloring matrix S2222. After leaving the resultant sample solution for 20 minutes at room temperature, the sample solution was added with 50 μL of 10 w/v % acetic acid solution to stop reactions, and then subjected to measurement of absorption of light with a wave length of 405 nm, using 50 mM tris(hydroxymethyl)aminomethane buffer solution of pH 8.0 as the blank. The dilution of all the samples and agents was carried out by a 50 mM tris(hydroxymethyl)aminomethane buffer solution of pH 8.0. Results are shown in FIG. 5, in which the ordinate denotes the deactivation rate of α2-macroglobulin, and the abscissa denotes the concentrations of respective compounds.

The mark [4] stands for this setting: compound concentration 0.1 w/v %.

In the case of `O=C1CCC(=O)N1Cl` [N-chlorsuccinimide], the “number of migrating vascular smooth muscles” value in assay [1] (80 mM N-chlorsuccinimide in fibrin gel) is on record as “vanished completely”. Also, the “frequency of migration of the vascular smooth muscles into the gel” value in assay [1] (N-chlorsuccinimide 0.08, 0.8, 8 and 80 mM in fibrin gel, n=3) is reported as “decreases apparently with increasing concentration”. Moreover, the “neointimal hyperplasia (degree of intimal thickening, I/M ratio)” value in assay [2] was “considerably inhibited”.
`CN` [methylamine]: the “deactivation rate of α2-macroglobulin” value in assay [3] (compound concentration 1 w/v %) is reported as “about 100%”.
In the case of lysozyme chloride, the “deactivation rate of α2-macroglobulin” value in assay [3] (setting [4]) is reported as 100%.
Turning to polylysine, in assay [3] (setting [4]), the “deactivation rate of α2-macroglobulin” value came to 100%.
